Source: ChEMBL document CHEMBL1201862, “PubChem BioAssay data set” (2004)
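Values below derive from 48-hour exposures of cells grown in 96-well plates, with endpoints linearly interpolated between the two concentrations bracketing the appropriate inhibition level. Here, GI50 denotes the concentration required for 50% inhibition of growth.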 Active and inactive are the calls of the source. No stated cut-off is given here; in the data, active = GI50 up to about 1.1 µM and inactive = higher.

Experiments:
Experiment in all cases: growth of human tumour cells (NCI), 48 h
BT-549 = tested on: BT-549
SNB-75 = tested on: SNB-75
NCI-H460 = tested on: NCI-H460
HCT-116 = tested on: HCT-116
OVCAR-5 = tested on: OVCAR-5
UO-31 = tested on: UO-31
DU-145 = tested on: DU-145
KM12 = tested on: KM12
NCI-H23 = tested on: NCI-H23
786-0 = tested on: 786-0
HOP-62 = tested on: HOP-62
HT-29 = tested on: HT-29
MDA-MB-231 = tested on: MDA-MB-231
MDA-MB-435 = tested on: MDA-MB-435
SR = tested on: SR
CCRF-CEM = tested on: CCRF-CEM
SK-OV-3 = tested on: SK-OV-3
SK-MEL-28 = tested on: SK-MEL-28
K562 = tested on: K562
PC-3 = tested on: PC-3
HCC 2998 = tested on: HCC 2998
SN12C = tested on: SN12C
M14 = tested on: M14
Hs-578T = tested on: Hs-578T
NCI-H226 = tested on: NCI-H226
OVCAR-4 = tested on: OVCAR-4
U-251 = tested on: U-251
Malme-3M = tested on: Malme-3M
HOP-92 = tested on: HOP-92
SF-268 = tested on: SF-268
A498 = tested on: A498
EKVX = tested on: EKVX
COLO 205 = tested on: COLO 205
OVCAR-8 = tested on: OVCAR-8
SNB-19 = tested on: SNB-19
CAKI-1 = tested on: CAKI-1
SF-295 = tested on: SF-295
SW-620 = tested on: SW-620
RXF 393 = tested on: RXF 393
UACC-62 = tested on: UACC-62
A549 = tested on: A549
SK-MEL-5 = tested on: SK-MEL-5
UACC-257 = tested on: UACC-257
OVCAR-3 = tested on: OVCAR-3
IGROV-1 = tested on: IGROV-1
RPMI-8226 = tested on: RPMI-8226
NCI-H522 = tested on: NCI-H522
HCT-15 = tested on: HCT-15
HL-60 = tested on: HL-60
SF-539 = tested on: SF-539
TK-10 = tested on: TK-10
T47D = tested on: T47D
MOLT-4 = tested on: MOLT-4
ACHN = tested on: ACHN
NCI/ADR-RES = tested on: NCI/ADR-RES
LOX IMVI = tested on: LOX IMVI
MCF7 = tested on: MCF7
MDA-N = tested on: MDA-N
SK-MEL-2 = tested on: SK-MEL-2

CC[S+]([O-])c1c2cc(OC)ccc2nc2ccc(OC)cc12 (centres undefined)
GI50 (BT-549): 17.5 µM (inactive) | GI50 (SNB-75): 21 µM (inactive) | GI50 (NCI-H460): 29.5 µM (inactive) | GI50 (HCT-116): 3.19 µM (inactive) | GI50 (OVCAR-5): 17.8 µM (inactive) | GI50 (UO-31): 4.82 µM (inactive) | GI50 (DU-145): 2.59 µM (inactive) | GI50 (KM12): 16.2 µM (inactive) | GI50 (NCI-H23): 6.05 µM (inactive) | GI50 (786-0): 2.56 µM (inactive) | GI50 (HOP-62): 21.5 µM (inactive) | GI50 (HT-29): 4.09 µM (inactive) | GI50 (MDA-MB-231): 5.62 µM (inactive) | GI50 (MDA-MB-435): 8.85 µM (inactive) | GI50 (SR): 3.51 µM (inactive) | GI50 (CCRF-CEM): 3.79 µM (inactive) | GI50 (SK-OV-3): 24.1 µM (inactive) | GI50 (SK-MEL-28): 7.91 µM (inactive) | GI50 (K562): 2.42 µM (inactive) | GI50 (PC-3): 10.7 µM (inactive) | GI50 (HCC 2998): 16.6 µM (inactive) | GI50 (SN12C): 4.58 µM (inactive) | GI50 (M14): 10.2 µM (inactive) | GI50 (Hs-578T): 13.1 µM (inactive) | GI50 (NCI-H226): 21.8 µM (inactive) | GI50 (OVCAR-4): 17 µM (inactive) | GI50 (U-251): 16.7 µM (inactive) | GI50 (Malme-3M): 5.12 µM (inactive) | GI50 (HOP-92): 7.16 µM (inactive) | GI50 (SF-268): 14.5 µM (inactive) | GI50 (A498): 17.3 µM (inactive) | GI50 (EKVX): 16.9 µM (inactive) | GI50 (COLO 205): 6.08 µM (inactive) | GI50 (OVCAR-8): 5.55 µM (inactive) | GI50 (SNB-19): 20 µM (inactive) | GI50 (CAKI-1): 5.06 µM (inactive) | GI50 (SF-295): 27.1 µM (inactive) | GI50 (SW-620): 6.84 µM (inactive) | GI50 (RXF 393): 4.71 µM (inactive) | GI50 (UACC-62): 16.9 µM (inactive) | GI50 (A549): 22.6 µM (inactive) | GI50 (SK-MEL-5): 16.4 µM (inactive) | GI50 (UACC-257): 5.45 µM (inactive) | GI50 (OVCAR-3): 6 µM (inactive) | GI50 (IGROV-1): 4.94 µM (inactive) | GI50 (RPMI-8226): 3.45 µM (inactive) | GI50 (NCI-H522): 1.83 µM (inactive) | GI50 (HCT-15): 6.75 µM | GI50 (HL-60): 4.99 µM (inactive) | GI50 (SF-539): 6.79 µM (inactive) | GI50 (TK-10): 5.38 µM (inactive) | GI50 (T47D): 2.62 µM (inactive) | GI50 (MOLT-4): 4.07 µM (inactive) | GI50 (ACHN): 4.79 µM (inactive) | GI50 (NCI/ADR-RES): 20.4 µM (inactive) | GI50 (LOX IMVI): 2.58 µM (inactive) | GI50 (MCF7): 2.84 µM (inactive) | GI50 (MDA-N): 4.71 µM (inactive) | GI50 (SK-MEL-2): 17.5 µM (inactive)
